Reference: ChEMBL document CHEMBL1145420, “On sampling of fragment space” (J Med Chem, 2007)

How the values were obtained:
[1] = molecular target: Dipeptidyl peptidase 8 (Homo sapiens) (UniProt Q6V1X1); assay: Inhibition of DPP8
[2] = molecular target: Dipeptidyl peptidase 2 (Homo sapiens) (UniProt Q9UHL4); assay: Inhibition of QPP
[3] = molecular target: Dipeptidyl peptidase 9 (Homo sapiens) (UniProt Q86TI2); assay: Inhibition of DPP9
[4] = molecular target: T1, Prolyl endopeptidase (Homo sapiens) (UniProt P48147); assay: Inhibition of PEP
T1 sequence (whole entry): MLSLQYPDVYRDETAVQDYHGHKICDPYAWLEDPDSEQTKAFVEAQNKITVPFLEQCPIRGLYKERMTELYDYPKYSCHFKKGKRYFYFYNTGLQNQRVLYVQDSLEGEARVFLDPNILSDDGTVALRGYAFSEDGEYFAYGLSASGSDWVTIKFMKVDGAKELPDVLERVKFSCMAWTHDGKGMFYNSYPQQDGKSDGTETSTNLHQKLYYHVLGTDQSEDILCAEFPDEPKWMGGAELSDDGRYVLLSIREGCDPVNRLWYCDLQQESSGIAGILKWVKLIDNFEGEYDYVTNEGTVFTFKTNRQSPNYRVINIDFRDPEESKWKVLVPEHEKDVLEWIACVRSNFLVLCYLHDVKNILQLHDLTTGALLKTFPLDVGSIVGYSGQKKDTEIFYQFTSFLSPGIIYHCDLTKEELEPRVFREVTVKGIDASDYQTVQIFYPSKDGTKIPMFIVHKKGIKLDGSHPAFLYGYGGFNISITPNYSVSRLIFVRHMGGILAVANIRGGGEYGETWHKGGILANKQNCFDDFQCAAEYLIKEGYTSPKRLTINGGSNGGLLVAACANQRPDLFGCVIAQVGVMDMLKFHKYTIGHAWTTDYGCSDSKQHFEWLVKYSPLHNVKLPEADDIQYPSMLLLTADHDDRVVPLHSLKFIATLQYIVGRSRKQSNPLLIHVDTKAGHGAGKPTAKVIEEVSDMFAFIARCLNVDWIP

[5] = molecular target: Prolyl endopeptidase FAP (Homo sapiens) (UniProt Q12884); assay: Inhibition of FAP
Chain of Prolyl endopeptidase FAP (Homo sapiens) (Q12884 whole entry): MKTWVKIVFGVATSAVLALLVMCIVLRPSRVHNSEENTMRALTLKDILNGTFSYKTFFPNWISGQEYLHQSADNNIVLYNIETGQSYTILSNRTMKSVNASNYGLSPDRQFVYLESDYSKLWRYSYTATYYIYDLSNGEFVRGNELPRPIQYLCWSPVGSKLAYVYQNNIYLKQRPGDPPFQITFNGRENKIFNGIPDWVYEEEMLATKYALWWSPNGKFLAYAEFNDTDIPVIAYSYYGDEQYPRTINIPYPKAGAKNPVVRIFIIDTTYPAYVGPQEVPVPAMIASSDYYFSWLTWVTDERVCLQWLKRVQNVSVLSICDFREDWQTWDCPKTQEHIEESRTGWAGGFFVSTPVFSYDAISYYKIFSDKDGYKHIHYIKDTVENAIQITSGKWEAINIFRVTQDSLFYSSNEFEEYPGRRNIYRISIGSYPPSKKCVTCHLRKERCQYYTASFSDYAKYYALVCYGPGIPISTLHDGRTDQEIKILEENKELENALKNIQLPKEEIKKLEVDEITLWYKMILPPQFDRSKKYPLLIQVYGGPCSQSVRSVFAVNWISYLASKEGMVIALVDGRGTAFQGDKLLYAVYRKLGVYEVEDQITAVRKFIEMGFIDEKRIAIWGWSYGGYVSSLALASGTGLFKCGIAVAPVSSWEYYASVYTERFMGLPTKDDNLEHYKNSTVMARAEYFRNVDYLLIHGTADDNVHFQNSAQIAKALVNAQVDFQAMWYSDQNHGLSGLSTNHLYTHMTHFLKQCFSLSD

Chain of Dipeptidyl peptidase 9 (Homo sapiens) (Q86TI2 2-863 limits assumed): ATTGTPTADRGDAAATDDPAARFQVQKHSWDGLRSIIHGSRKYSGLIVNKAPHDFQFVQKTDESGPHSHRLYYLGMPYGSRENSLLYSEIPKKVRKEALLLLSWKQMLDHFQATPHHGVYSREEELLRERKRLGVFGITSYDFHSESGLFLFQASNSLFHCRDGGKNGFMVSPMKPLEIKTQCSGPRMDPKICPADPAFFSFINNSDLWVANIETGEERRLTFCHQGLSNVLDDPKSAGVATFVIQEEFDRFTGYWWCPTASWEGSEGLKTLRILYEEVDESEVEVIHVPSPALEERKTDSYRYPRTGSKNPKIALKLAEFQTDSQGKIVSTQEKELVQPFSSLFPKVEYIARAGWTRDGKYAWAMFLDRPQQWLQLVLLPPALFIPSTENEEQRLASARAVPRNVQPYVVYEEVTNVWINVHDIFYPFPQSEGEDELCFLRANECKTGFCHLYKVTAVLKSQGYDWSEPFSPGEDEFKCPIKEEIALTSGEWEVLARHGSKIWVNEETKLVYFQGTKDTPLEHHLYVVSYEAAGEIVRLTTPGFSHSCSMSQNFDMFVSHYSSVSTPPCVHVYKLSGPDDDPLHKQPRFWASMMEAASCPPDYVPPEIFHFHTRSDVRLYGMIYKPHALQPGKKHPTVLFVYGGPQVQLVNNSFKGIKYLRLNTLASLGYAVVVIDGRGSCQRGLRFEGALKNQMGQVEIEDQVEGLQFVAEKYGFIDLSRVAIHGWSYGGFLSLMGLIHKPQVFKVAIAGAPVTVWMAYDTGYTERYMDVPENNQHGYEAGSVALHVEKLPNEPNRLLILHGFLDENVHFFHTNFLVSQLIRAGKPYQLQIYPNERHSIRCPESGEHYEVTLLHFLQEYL
Chain of Dipeptidyl peptidase 8 (Homo sapiens) (Q6V1X1 whole entry, looked up): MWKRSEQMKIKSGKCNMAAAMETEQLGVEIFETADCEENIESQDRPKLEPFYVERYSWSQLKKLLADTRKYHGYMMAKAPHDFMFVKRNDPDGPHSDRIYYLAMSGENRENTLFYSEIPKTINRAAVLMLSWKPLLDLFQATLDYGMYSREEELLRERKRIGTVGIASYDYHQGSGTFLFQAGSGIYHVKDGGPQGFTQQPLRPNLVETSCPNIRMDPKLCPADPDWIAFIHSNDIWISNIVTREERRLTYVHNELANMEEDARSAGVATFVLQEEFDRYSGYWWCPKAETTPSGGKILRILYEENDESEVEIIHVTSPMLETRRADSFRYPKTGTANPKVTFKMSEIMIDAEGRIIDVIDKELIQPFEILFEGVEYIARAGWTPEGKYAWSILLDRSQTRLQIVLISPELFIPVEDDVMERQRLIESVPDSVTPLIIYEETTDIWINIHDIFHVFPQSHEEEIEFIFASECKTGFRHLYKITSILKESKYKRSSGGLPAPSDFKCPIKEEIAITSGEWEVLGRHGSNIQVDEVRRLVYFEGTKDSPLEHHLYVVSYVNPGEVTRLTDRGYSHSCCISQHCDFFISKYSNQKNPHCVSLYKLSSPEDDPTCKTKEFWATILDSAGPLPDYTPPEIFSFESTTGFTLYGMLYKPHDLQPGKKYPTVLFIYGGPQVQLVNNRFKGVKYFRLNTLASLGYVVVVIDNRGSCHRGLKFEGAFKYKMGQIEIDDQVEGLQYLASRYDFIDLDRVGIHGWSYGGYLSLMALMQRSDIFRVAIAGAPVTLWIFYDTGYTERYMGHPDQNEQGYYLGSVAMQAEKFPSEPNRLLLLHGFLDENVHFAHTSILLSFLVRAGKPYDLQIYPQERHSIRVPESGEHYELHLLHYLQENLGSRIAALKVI

Activity [1] [µM]	Activity [2] [µM]	Activity [3] [µM]	Activity [4] [µM]	Activity [5] [µM]	Structure (SMILES)
> 10	66	> 100	–	–	N[C@@H](CC(=O)N1CCC[C@H]1C(=O)NCc1cc(Cl)ccc1OCC(=O)NC1CC1)Cc1ccccc1
460	680	> 1000	> 1000	> 1000	CNC(=O)C[C@H](N)Cc1ccccc1
